Values quoted from earlier work as cited in US4866036A, “Dipeptidyl 5-0,6-0-acyl-2-amino-2-deoxy-D-glucofuranose compositions and methods of use in aids-immunocompromised human hosts” (priority 1987, dated 1989).

What was measured:
[1] = human, in vivo
[2] = in vivo
[3] = human, in vivo; remark: listed apart in the source
[4] = target: HIV reverse transcriptase (Human immunodeficiency virus type 1 group M subtype B, UniProt P04585)
[5] = tested on: reverse transcriptase in several retroviruses; settings: in vitro

Molecule	clinical effect in AIDS or ARC patients [1]	toxicity / adverse effects in patients [3]	further results
CO[C@H]1/C=C/O[C@@]2(C)Oc3c(C)c(O)c4c(c3C2=O)C2=NC3(CCN(CC(C)C)CC3)NC2=C(NC(=O)/C(C)=C\C=C\[C@H](C)[C@H](O)[C@@H](C)[C@@H](O)[C@@H](C)[C@H](OC(C)=O)[C@@H]1C)C4=O [Ansamycin, rifabutin]	some efficacy		
Cc1cn([C@H]2C[C@H](N=[N+]=[N-])[C@@H](CO)O2)c(=O)[nH]c1=O [Azidothymidine, 3'-azido 3'-deoxythymidine]			half-life in the body [2]: relatively short half-life; penetration of the central nervous system [2]: effectively penetrates central nervous system
CC(C)(N1CC1C#N)N1CC1C(N)=O (centres unmarked) [Azimexon]	improvements in symptoms and immune function in patients with ARC but not AIDS	mild hemolysis	
CC(C)(S)[C@@H](N)C(=O)O [D-Penicillamine, 3-mercapto-D-valine]	suppressed the virus	temporarily depressed T cell levels	
O=C(O)P(=O)(O)O [Foscarnet, trisodium phosphonoformate]		serious side effects	HIV reverse transcriptase activity [4]: Inhibits HIV reverse transcriptase activity in vitro
CC(=O)Nc1ccc(C(=O)O)cc1.CC(=O)Nc1ccc(C(=O)O)cc1.CC(=O)Nc1ccc(C(=O)O)cc1.CC(O)CN(C)C.CC(O)CN(C)C.CC(O)CN(C)C.O=c1[nH]cnc2c1ncn2[C@@H]1O[C@H](CO)[C@@H](O)[C@H]1O [Inosine pranobex]	improve immune function in ARC patients		
NC(=O)c1ncn([C@@H]2O[C@H](CO)[C@@H](O)[C@H]2O)n1 [Ribavirin, 1β-D ribofuranosyl 1,2,4-triazole 3-carboxamide]	inhibited viral replication and improved immune function		
Cc1ccc(C(=O)Nc2ccc(S(=O)(=O)O)c3cc(S(=O)(=O)O)cc(S(=O)(=O)O)c23)cc1NC(=O)c1cccc(NC(=O)Nc2cccc(C(=O)Nc3cc(C(=O)Nc4ccc(S(=O)(=O)O)c5cc(S(=O)(=O)O)cc(S(=O)(=O)O)c45)ccc3C)c2)c1 [Suramin]			HIV reverse transcriptase activity [4]: Potent inhibitor
ammonium 21-tungsto-9 antimoniate [HPA 23]	no therapeutic benefit has been documented		growth of HIV (HIV): some tendency to check the growth of HIV; reverse transcriptase in several retroviruses [5]: Inhibits reverse transcriptase
α-Interferon	induced tumor regression in some AIDS related Kaposi's sarcoma cases		growth of HIV (HIV): Checks the growth of HIV in vitro
